According to the supplement of paper PMC10307832:

How the values were obtained:
Assay in all cases: relative viability (nuclei count vs DMSO), 5 days (fraction); higher = more cells survive
[1] = compound: COC1=CC=C(C=C1)CN2C=CC3=C2C=C(C=C3)C(=O)NO + COc1cccc2cc(-c3nc([C@H]4CC[C@H](C(=O)O)CC4)n4ncnc(N)c34)[nH]c12 [OSI-027] (partner 0.5 µM)
Outline: (§1)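 Lung cancer cell lines in 1536-well plates got either a single drug or a fixed anchor-drug dose together with five library-drug doses (not always all listed) in √10 steps, by pin tool, on the day after seeding. Nuclei were counted after 5 days, and relative viability is the treated-to-vehicle ratio of nuclei counts. Values are medians of duplicate plates.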

[2] = compound: C[C@]1(c2nc3c(C(N)=O)cccc3[nH]2)CCCN1 [Veliparib] + CCNC(=O)c1noc(-c2cc(C(C)C)c(O)cc2O)c1-c1ccc(CN2CCOCC2)cc1 [Luminespib] (partner 0.01 µM)
Outline: as §1

[3] = compound: C[C@]1(c2nc3c(C(N)=O)cccc3[nH]2)CCCN1 [Veliparib] + CS(=O)(=O)CCNCc1ccc(-c2ccc3ncnc(Nc4ccc(OCc5cccc(F)c5)c(Cl)c4)c3c2)o1 [Lapatinib] (partner 2 µM)
Outline: as §1

[4] = compound: C[C@]1(c2nc3c(C(N)=O)cccc3[nH]2)CCCN1 [Veliparib] + NC(=O)Nc1cc(-c2cccc(F)c2)sc1C(=O)N[C@H]1CCCNC1 [AZD7762] (partner 0.2 µM)
Outline: as §1

Cell Line	relative viability ([1]; first compound 0.08 µM)	relative viability ([1]; first compound 0.253 µM)	relative viability ([1]; first compound 0.8 µM)	relative viability ([1]; first compound 2.53 µM)	relative viability ([1]; first compound 8 µM)	relative viability ([2]; first compound 0.02 µM)	relative viability ([2]; first compound 0.06325 µM)	relative viability ([2]; first compound 0.2 µM)	relative viability ([2]; first compound 0.6325 µM)	relative viability ([2]; first compound 2 µM)	relative viability ([3]; first compound 0.02 µM)	relative viability ([3]; first compound 0.06325 µM)	relative viability ([3]; first compound 0.2 µM)	relative viability ([3]; first compound 0.6325 µM)	relative viability ([3]; first compound 2 µM)	relative viability ([4]; first compound 0.02 µM)	relative viability ([4]; first compound 0.06325 µM)	relative viability ([4]; first compound 0.2 µM)	relative viability ([4]; first compound 0.6325 µM)	relative viability ([4]; first compound 2 µM)
NCI-H1651	0.682	0.764	0.758	0.622	0.627	0.724	0.806	0.88	0.486	0.651	0.557	0.755	0.92	0.835	0.775	0.455	0.424	0.419	0.46	0.412
NCI-H1666	0.818	0.906	0.873	0.946	0.85	1.01	0.984	0.968	0.941	0.982	0.606	0.348	0.675	0.744	0.662	0.872	0.823	0.799	0.918	0.881
NCI-H1734	–	0.641	0.558	0.608	0.527	0.197	0.209	0.211	0.232	0.233	1.16	0.982	0.933	0.981	1.12	–	0.529	0.529	0.536	0.642
NCI-H1755	0.632	0.746	0.732	0.732	0.708	0.551	0.553	0.41	0.357	0.36	1.02	1	1.01	0.99	0.989	0.479	0.543	0.5	0.443	0.444
NCI-H1792	0.722	0.811	0.745	0.802	0.616	0.509	0.361	0.508	0.429	0.331	0.922	0.719	0.962	0.983	0.832	0.479	0.485	0.548	0.569	0.533
NCI-H1793	–	0.296	0.267	0.328	0.248	0.196	0.174	0.177	0.169	0.181	0.548	0.555	0.788	0.572	0.762	0.532	0.518	0.592	0.56	0.581
NCI-H1915	0.564	0.656	0.643	0.599	0.532	0.799	0.6	0.647	0.553	0.596	0.96	0.897	0.756	0.872	0.885	0.661	0.643	0.517	0.556	0.519
NCI-H1944	–	0.427	0.401	0.407	0.375	0.698	0.618	0.633	0.613	0.657	0.825	0.748	0.627	0.72	0.767	0.521	0.592	0.504	0.511	0.529
NCI-H1975	0.724	0.703	0.742	0.723	0.638	0.118	0.233	0.142	0.31	0.18	0.843	0.765	0.831	0.873	0.911	0.765	0.639	0.737	0.736	0.61
NCI-H1993	0.525	0.626	0.53	0.571	0.521	0.713	0.675	0.968	0.64	0.895	0.794	0.759	0.823	0.851	0.85	–	0.875	0.934	0.664	0.607
NCI-H2085	0.888	0.754	0.746	0.982	0.731	–	0.438	0.426	0.273	0.447	0.473	0.684	0.677	0.782	0.637	0.813	0.984	1.05	1.03	0.911
NCI-H2087	0.626	0.632	0.592	0.561	0.347	0.167	0.188	0.152	0.14	0.145	0.548	1.02	0.913	0.854	1.32	1.29	1.23	1.5	1.3	1.19
NCI-H2126	0.685	0.775	0.696	0.797	0.743	0.875	0.908	0.839	0.901	0.95	0.797	0.687	0.726	0.775	0.729	0.957	0.975	1.03	1.07	0.834
NCI-H2170	0.708	0.725	0.8	0.81	0.609	0.681	0.865	0.719	0.732	0.6	0.259	0.245	0.268	0.299	0.285	0.849	0.904	0.786	0.829	0.734
NCI-H2347	0.479	0.433	0.473	0.481	0.402	0.484	0.54	0.649	0.547	0.427	0.962	0.917	0.897	1.01	0.944	0.77	0.787	0.788	0.769	0.624
NCI-H2405	0.633	0.65	0.638	0.664	0.606	0.695	0.609	0.771	0.666	0.711	–	0.941	1.09	1.14	1.26	0.772	–	0.81	0.734	0.738
